Experimental data as given in patent US20230086703A1, “N-(4-(5-chloropyridin-3-yl)phenyl)-2-(2-(cyclopropanesulfonamido)pyrimidin-4-yl) butanamide derivatives and related compounds as human CTPS1 inhibitors for the treatment of proliferative diseases” (Step Pharma S.A.S., priority 2019, published 2023).

Tests used:
human CTPS1 [1] = target: T1, human CTPS1 (Homo sapiens, UniProt P17812); test: Human CTPS1 enzyme inhibition, ADP-Glo Max assay; type: biochemical; conditions: Table 12, ADP-Glo Max assay; read-out: CTPS1 (Human CTPS1 Enzyme Inhibition data grouped by potency range)
T1 construct: FLAG (with GG linker); His8 (with GG linker); purchased Proteros biostructures GmbH
T1 sequence (P17812 1-591): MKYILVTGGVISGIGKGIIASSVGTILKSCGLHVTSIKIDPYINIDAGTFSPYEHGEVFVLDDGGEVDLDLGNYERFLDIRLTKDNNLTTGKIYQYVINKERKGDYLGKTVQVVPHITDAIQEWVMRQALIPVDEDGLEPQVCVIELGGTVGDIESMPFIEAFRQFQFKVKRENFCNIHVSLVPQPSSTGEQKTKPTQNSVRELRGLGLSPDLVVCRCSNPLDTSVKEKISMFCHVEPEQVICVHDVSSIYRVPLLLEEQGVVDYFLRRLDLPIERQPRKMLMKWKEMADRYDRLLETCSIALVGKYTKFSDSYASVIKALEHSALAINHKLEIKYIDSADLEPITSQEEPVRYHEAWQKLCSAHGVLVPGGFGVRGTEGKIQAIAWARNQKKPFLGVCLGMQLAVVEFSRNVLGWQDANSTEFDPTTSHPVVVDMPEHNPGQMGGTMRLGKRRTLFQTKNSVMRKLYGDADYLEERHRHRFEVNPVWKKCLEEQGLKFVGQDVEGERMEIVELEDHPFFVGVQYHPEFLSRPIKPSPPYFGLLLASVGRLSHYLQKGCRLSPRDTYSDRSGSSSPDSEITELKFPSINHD
How it was run: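 Enzyme preincubated with compound for 10 min at 25 °C in 50 mM Tris pH 8.0, 10 mM MgCl2, 0.01% Tween-20, 2 mM L-cysteine. ATP-to-ADP conversion detected by ADP-Glo Max luminescence after 60 min depletion and 60 min development steps. Percentage inhibition calculated per concentration.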

human CTPS1 [2] = target: T1, human CTPS1; test: RapidFire/MS-based enzyme selectivity assay (human CTPS1 versus CTPS2), CTPS1 isoform; type: biochemical; conditions: RapidFire/MS IC50 values of CTPS1 and CTPS2; Table 17
How it was run: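 Full-length C-terminal FLAG-His-tagged CTPS1 (1-591) was preincubated 10 min at 25 °C with compound in HEPES pH 8.0 buffer with MgCl2, KCl, DTT and Tween-20. Reactions were started with a 2× mix of ATP 0.3 mM, UTP 0.2 mM, GTP 0.07 mM and L-glutamine 0.1 mM, and run in the linear phase at 25 °C. IC50 comes from the RapidFire-MS ratio of CTP to 13C9-15N3-CTP.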

SMILES | IC50 (human CTPS1 [1]) [nM] | Selectivity (fold selectivity between CTPS1 and CTPS2) (human CTPS1 [2])
CCOc1cncc(-c2ccc(NC(=O)C3(c4ccnc(NS(=O)(=O)C5CC5)n4)CCN(S(=O)(=O)CC)CC3)nc2)n1 [P289] | < 100 | +++ (>60 fold (+++))
CCOc1cncc(-c2ccc(NC(=O)C3(c4ccnc(NS(=O)(=O)C5CC5)n4)CCN(S(=O)(=O)C4CC4)CC3)nc2)n1 [P290] | < 100 | +++ (>60 fold (+++))
CCOc1cncc(-c2ccc(NC(=O)C3(c4ccnc(NS(=O)(=O)C5CC5)n4)CCN(S(=O)(=O)N(C)C)CC3)nc2)n1 [P291] | < 100 | +++ (>60 fold (+++))
CCOc1cncc(-c2ccc(NC(=O)C3(c4ccnc(NS(=O)(=O)C5CC5)n4)CCN(S(=O)(=O)C(F)(F)F)CC3)nc2)n1 [P292] | < 100 | +++ (>60 fold (+++))
CCOc1cncc(-c2ccc(NC(=O)C3(c4ccnc(NS(=O)(=O)C5CC5)n4)CCN(S(=O)(=O)c4ccn(C)n4)CC3)nc2)n1 [P293] | < 100 | +++ (>60 fold (+++))
CCOc1cncc(-c2ccc(NC(=O)C3(c4nccc(NS(=O)(=O)C5CC5)n4)CCN(CC#N)CC3)nc2)n1 [P294] | < 100 | +++ (>60 fold (+++))
CCOc1cncc(-c2ccc(NC(=O)C3(c4ccnc(NS(=O)(=O)CC)n4)CCN(S(C)(=O)=O)CC3)nc2)n1 [P297] | < 100 | +++ (>60 fold (+++))
CCOc1cncc(-c2ccc(NC(=O)C3(c4ccnc(NS(=O)(=O)CC)n4)CCN(S(=O)(=O)CC)CC3)nc2)n1 [P298] | < 100 | +++ (>60 fold (+++))
CCOc1cncc(-c2ccc(NC(=O)C3(c4ccnc(NS(=O)(=O)CC)n4)CCN(S(=O)(=O)C4CC4)CC3)nc2)n1 [P299] | < 100 | +++ (>60 fold (+++))
CCOc1cncc(-c2ccc(NC(=O)C3(c4ccnc(NS(=O)(=O)CC)n4)CCN(S(=O)(=O)c4ccn(C)n4)CC3)nc2)n1 [P300] | < 100 | +++ (>60 fold (+++))
COC1CCC(C(=O)Nc2ccc(-c3cncc(C4CC4)n3)cn2)(c2ccnc(NS(=O)(=O)C3CC3)n2)CC1 (centres unmarked) [P301] | < 100 | +++ (>60 fold (+++))
CCOc1cncc(-c2ccc(NC(=O)C3(c4ccnc(NS(=O)(=O)C5CC5)n4)CCC(N4CCCC4)CC3)nc2)n1 (centres unmarked) [P302] | < 100 | +++ (>60 fold (+++))
CCOc1cncc(-c2ccc(NC(=O)C3(c4ccnc(NS(=O)(=O)C5CC5)n4)CCC(N4CCCC4)CC3)nc2)n1 (centres unmarked) [P303] | 100 to 1000 | +++ (>60 fold (+++))
CCOc1cncc(-c2ccc(NC(=O)C3(c4ccnc(NS(=O)(=O)C5CC5)n4)CCC(N4CCOCC4)CC3)nc2)n1 (centres unmarked) [P305] | 100 to 1000 | +++ (>60 fold (+++))
CCOc1cncc(-c2ccc(NC(=O)C3(c4ccnc(NS(=O)(=O)C5CC5)n4)CCC(N4CCOCC4)CC3)nc2)n1 (centres unmarked) [P306] | < 100 | +++ (>60 fold (+++))
CCOc1cncc(-c2ccc(NC(=O)C3(c4ccnc(NS(=O)(=O)C5CC5)n4)CCC(N(C)C4COC4)CC3)nc2)n1 (centres unmarked) [P307] | < 100 | +++ (>60 fold (+++))
CCOc1cncc(-c2ccc(NC(=O)C3(c4ccnc(NS(=O)(=O)C5CC5)n4)CCC(N(C)CCOC)CC3)nc2)n1 (centres unmarked) [P308] | < 100 | +++ (>60 fold (+++))
CCOc1cncc(-c2ccc(NC(=O)C3(c4ccnc(NS(=O)(=O)C5CC5)n4)CCC(N(C)CCOC)CC3)nc2)n1 (centres unmarked) [P309] | 100 to 1000 | +++ (>60 fold (+++))
CCOc1cncc(-c2ccc(NC(=O)C3(c4ccnc(NS(=O)(=O)C5CC5)n4)CCC(N4CCN(C)CC4)CC3)nc2)n1 (centres unmarked) [P312] | < 100 | +++ (>60 fold (+++))
COC1CCC(C(=O)Nc2ccc(-c3cncc(C4CC4)n3)cn2)(c2ccnc(NS(=O)(=O)C3CC3)n2)CC1 (centres unmarked) [P313] | < 100 | +++ (>60 fold (+++))
CCOc1cncc(-c2ccc(NC(=O)C3(c4cncc(NS(=O)(=O)C5CC5)n4)CCN(S(C)(=O)=O)CC3)nc2)n1 [P314] | < 100 | +++ (>60 fold (+++))
CS(=O)(=O)N1CCC(C(=O)Nc2ccc(-c3cncc(C4CC4)n3)cn2)(c2nccc(NS(=O)(=O)C3CC3)n2)CC1 [P315] | < 100 | +++ (>60 fold (+++))
CCOc1cncc(-c2ccc(NC(=O)C3(c4nccc(NS(=O)(=O)C5CC5)n4)CCN(S(C)(=O)=O)CC3)nc2)n1 [P316] | < 100 | +++ (>60 fold (+++))
CCS(=O)(=O)N1CCC(C(=O)Nc2ccc(-c3cncc(C4CC4)n3)cn2)(c2nccc(NS(=O)(=O)C3CC3)n2)CC1 [P317] | < 100 | +++ (>60 fold (+++))
CCOc1cncc(-c2ccc(NC(=O)C3(c4nccc(NS(=O)(=O)C5CC5)n4)CCN(S(=O)(=O)CC)CC3)nc2)n1 [P318] | < 100 | +++ (>60 fold (+++))
